“Also recorded” adds a separate entry of the source.
Columns and labels:
[1] = biological target: T1, LSS (Rattus norvegicus, UniProt P48450); conditions: cited from earlier work
T1 sequence (P48450 1-733): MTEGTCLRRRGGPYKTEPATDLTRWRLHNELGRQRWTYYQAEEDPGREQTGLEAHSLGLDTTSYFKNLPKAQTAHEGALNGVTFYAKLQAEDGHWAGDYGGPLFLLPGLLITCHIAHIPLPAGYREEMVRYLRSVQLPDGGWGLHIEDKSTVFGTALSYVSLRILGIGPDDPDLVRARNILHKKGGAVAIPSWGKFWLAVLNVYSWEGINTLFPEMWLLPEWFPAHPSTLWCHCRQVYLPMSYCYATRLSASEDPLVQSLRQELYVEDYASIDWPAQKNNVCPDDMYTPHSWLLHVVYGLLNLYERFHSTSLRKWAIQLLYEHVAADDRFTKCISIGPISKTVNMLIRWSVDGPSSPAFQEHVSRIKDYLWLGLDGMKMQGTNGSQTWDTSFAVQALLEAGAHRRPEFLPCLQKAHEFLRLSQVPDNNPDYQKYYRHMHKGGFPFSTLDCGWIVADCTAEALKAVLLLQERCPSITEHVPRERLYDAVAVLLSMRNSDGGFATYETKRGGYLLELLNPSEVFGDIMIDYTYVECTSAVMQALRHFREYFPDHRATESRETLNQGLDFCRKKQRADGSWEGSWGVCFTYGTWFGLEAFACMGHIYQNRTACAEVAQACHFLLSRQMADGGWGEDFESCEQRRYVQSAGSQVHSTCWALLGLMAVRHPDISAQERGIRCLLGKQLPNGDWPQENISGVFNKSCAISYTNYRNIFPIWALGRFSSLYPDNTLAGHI

[2] = test system: amyloid-like fibrils of crystallin proteins; assay: Re-dissolution of pre-formed amyloid-like fibrils (ThT fluorescence, TEM, turbidity); format: biochemical, human; conditions: 0.2 mg/ml aggregates; 500 μM sterols in 500 μM DPPC liposome (b129 prints 500 mM), 37° C., 24 h; TEM and ThT fluorescence; concentration-dependent
Experimental: Crystallin aggregates were formed by incubating 5 mg ml^−1 protein solution at 60° C. for 2 h (α-crystallins) or 37° C. for 48 h (β- and γ-crystallins) in the presence of 1 M guanidine chloride. The preformed aggregates were re-suspended in PBS at a final protein concentration of 0.2 mg ml^−1 and were treated with 500 μM sterols in 500 μM DPPC liposome and incubated at 37° C. for 24 h. Aggregates treated with 500 μM DPPC liposome only were used as the controls. […] Aggregates treated with 500 μM DPPC liposome only were used as the controls.
All protein samples were prepared in 20 mM PBS buffer containing 150 mM NaCl, 1 mM EDTA and 1 mM DTT.
Protein aggregation and aggregate dissociation. The aggregates of the wild-type and mutated αA- and αB-crystallin proteins were obtained by heating the protein solutions containing 1 M guanidine chloride (ultrapure, Sigma-Aldrich) at a con-centration of 5 mg/ml at 60° C. for 2 h. The aggregates of the wild-type and mutated b- and c-crystallins were prepared by heating the protein solutions containing 1 M guanidine chloride at 37° C. for 48 h. The formation of aggregates was confirmed by ThT fluorescence, turbidity (absorbance at 400 nm) and transmission electron microscopy (TEM) observations. […] After 24 h of treatment, the protein solutions were used for ThT fluorescence, turbidity and negatively stained TEM observations. […]

[3] = test system: cataract-causing mutant crystallin proteins; assay: Intracellular aggregation of mutant crystallins in transfected human lens progenitor cells; format: cell-based
Experimental: To assess the effect of lanosterol on crystallin aggregation, human lens progenitor cells were co-transfected with LSS and various crystallin constructs for 4 h. Cells co-transfected with crystallin mutants and pcDNA3.1-N-Flag were used as a control. Human lens progenitor cells co-transfected with LSS and crystallin mutant constructs were cultured for 12 h before assaying for aggregates. The rescue experiments were performed after 16 h by addition of 40 mM sterols (lanosterol or cholesterol, Sigma-Aldrich) to the cell culture medium for 2 h, which was then replaced with fresh culture medium and cells cultured for 24 h. The percentage of cells with crystallin aggregates was calculated from ten randomly selected viewing fields. The values of the wild-type LSS group, mutant group, and mutant plus lanosterol group were calculated. Cells treated with 1% DMSO were used as the controls.
The impact of LSS and lanosterol on intracellular crystallin aggregation were evaluated in single-blinded observer studies. Experiments have been repeated at least three times. P values were calculated using Student's t-tests. Fluorescence microscopy. Equal amounts of the human lens progenitor cells, HLEB-3 cells or HeLa cells were seeded on glass coverslips pretreated with TC (Solarbio). After culturing for 24 h to reach 90% confluency, the cells were transfected with plasmids containing various LSS or crystallin genes or co-transfected with plasmids containing a certain crystallin gene and those containing the wild-type or mutated LSS gene. The controls were cells transfected with the plasmids containing peGFP-N1 and/or peDNA3.1-N-Flag. Both transfection and co-transfection were performed using Lipofectamine 3000 (Invitrogen) according to the instructions from the manufacturer.
The effect of lanosterol or cholesterol on the aggresome formation of various crystallins was studied by transfecting the cells with plasmids containing various crystallin genes. The cells were incubated for 24 h to enable efficient protein expression and aggresome formation. The cells were then treated with 0-40 mM sterols in 1% (for human lens progenitor cells) or 2% DMSO (for HeLa cells). Cells treated with 1% or 2% DMSO were used as the control. After treatment for 2 h, the media was replaced with fresh media. After 12 h, the cells were used for microscopy analysis.
The microscopy samples were prepared by washing the slips with phosphate buffered saline (PBS) three times. The cells were fixed with 4% paraformaldehyde for 40 min followed by another three washes with PBS. The cells were permeabilized with 0.1% Triton X-100 (Sigma) in PBS for 10 min and blocked with 5% normal goat serum in PBS for 1 h at 37° C. […] The mounted cells were analysed using a Carl Zeiss LSM 710 confocal microscope.

[4] = biological target: T2, αA-crystallin (Y118D) aggregates (Homo sapiens, UniProt P02489, Y118D); assay: Serial live-cell imaging, single-particle tracking of aggregates; format: cell-based; conditions: human lens progenitor cells; 40 mM sterol in 1% DMSO for 4 h
T2 construct: expressed in transfected cells; host or cells: human lens progenitor cells, G418-selected
T2 sequence (P02489 1-173 Y118D): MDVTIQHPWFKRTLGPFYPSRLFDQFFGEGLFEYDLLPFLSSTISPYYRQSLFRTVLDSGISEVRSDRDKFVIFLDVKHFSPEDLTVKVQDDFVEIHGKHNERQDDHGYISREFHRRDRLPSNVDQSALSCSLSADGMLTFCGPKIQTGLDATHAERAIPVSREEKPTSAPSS
Experimental: Live-cell imaging. Human lens progenitor cells were transfected with plasmids containing αA-crystallin (Y118D) mutant. After a 24 h transfection period, the cells with stable expression of αA-crystallin (Y118D) mutant were screen by incubation in culture medium containing 0.8 mg ml^−1 G418 for 7 days. Then the obtained cells were seeded onto glass bottom cell culture dishes (In Vitro Scientific) and treated with 1% DMSO, 40 mM cholesterol in 1% DMSO or 40 mM lanosterol in 1% DMSO for 4 h. Fresh culture medium was added, and the cells were analysed by serial live-cell imaging. Live-cell images were viewed with an Olympus IX81 microscope and captured with CellSens Dimension soft-ware (Olympus). Quantitative analysis of the size of aggregates was performed by measuring the fluorescence intensity of p62-positive aggregates using single-par-tide tracking in live-cell imaging. The live-cell imaging was conducted using three biological replicates with 1-8 repetitions each.

[5] = test system: cataract-causing mutant crystallin proteins; assay: Intracellular aggregation of mutant crystallins in HLEB-3 cells; format: cell-based, human; conditions: HLEB-3 cells co-transfected with LSS and crystallin mutant; 40 μM sterols 2 h, then 12 h; lanosterol P<1×10^−4, cholesterol P>0.1
Experimental: (§1) FIG. 9A, FIG. 9B, and FIG. 9C show inhibition of crystallin mutant aggregation by wild-type LSS and lanosterol in HLEB-3 cells (FIG. 9A) or HeLa cells (FIG. 9B). Cells co-transfected with LSS and crystallin mutant constructs were cultured for 24 h before assaying for aggregates. The rescue experiments were performed by addition of 40 […] μM sterols (lanosterol or cholesterol) to the cell culture medium for 2 h, the sterol medium was then replaced with fresh culture medium and the cells were cultured for a further 12 h. The percentage of cells with crystallin aggregates were calculated from ten randomly selected viewing fields. The values of the wild-type LSS group, mutant group, or mutant plus lanosterol group were calculated. […] After transfection for 4 h and incubation in fresh culture medium for another 24 h, the cells were lysed and centrifuged to separate supernatant and insoluble fractions. LSS and crystallin fusion proteins were detected by antibodies against Flag and GFP, respectively. Red arrows indicate higher crystalline content in the soluble fraction versus in the insoluble fraction in cells containing the WT-LSS.
(§2) Cells were transfected with various crystallin constructs for 4 h and cultured for an additional 24 h in fresh culture medium. Then the cells were treated with 10, 20 and 40 μM lanosterol in 1% (HLEB-3 cells) or 2% DMSO (HeLa cells) for 2 h and cultured for another 12 h. Cells treated with 1% (HLEB-3 cells) or 2% DMSO (HeLa cells) were used as the controls. Formation of intracellular aggregates of various crystallin proteins was visualized by fluorescence of GFP (green) and the nuclei were stained with Hoechst 33342 (blue). Typical intracellular aggregates are indicated by arrows.
(§3) The impact of LSS and lanosterol on intracellular crystallin aggregation were evaluated in single-blinded observer studies. Experiments have been repeated at least three times. P values were calculated using Student's t-tests. Fluorescence microscopy. […]

[6] = test system: cataract-causing mutant crystallin proteins; assay: Intracellular aggregation of mutant crystallins in HeLa cells; format: cell-based, human; conditions: HeLa cells co-transfected with LSS and crystallin mutant; 40 μM sterols 2 h, then 12 h; lanosterol P<1×10^−4, cholesterol P>0.1
Experimental: as §1, §2, §3

| Structure (SMILES) | cataract formation by inhibition of LSS [1] | re-dissolution of aggregated crystallin proteins from amyloid-like fibrils [2] | intracellular aggregation / aggresome formation of crystallin proteins ([3]; 0-40 mM sterols in 1% DMSO for 2 h, then 12 h, concentration-dependent, n=3, lanosterol P<1×10^−4, cholesterol P>0.1) | crystallin aggregation in cells co-expressing an LSS mutant and a mutant crystallin (rescue by sterol) ([3]; 40 mM sterols in culture medium for 2 h, then fresh medium 24 h) | effect on αA-crystallin (Y118D) aggregates in live cells [4] | percentage of cells with crystallin aggregates versus control group (rescue) [5] | percentage of cells with crystallin aggregates versus control group (rescue) [6] |
| --- | --- | --- | --- | --- | --- | --- | --- |
| CCN(CC)CCO[C@H]1CC[C@@]2(C)C(=CC[C@@H]3[C@@H]2CC[C@]2(C)C(=O)CC[C@@H]32)C1 [U18666A] | cause cataracts |  |  |  |  |  |  |
| CC(C)CCC[C@@H](C)[C@H]1CC[C@H]2[C@@H]3CC=C4C[C@@H](O)CC[C@]4(C)[C@H]3CC[C@]12C [cholesterol, reference compound] |  | but not cholesterol | had no effect; also recorded: did not reduce intracellular aggregation | but not cholesterol | did not reduce aggresome formation | showed no difference to the control group | showed no difference to the control group |

— patent US10471076B2, “Compositions and methods to treat vision disorders” (YouHealth Biotech, Limited, priority 2014, dated 2019)
